Our source for the Ratio IC50, IC50 and inhibition values is ChEMBL document CHEMBL4680112, “Synthesis and Structure-Activity Relationships of Inhibitors That Target the C-Terminal MEEVD on Heat Shock Protein 90” (ACS Med Chem Lett, 2018).

The structures appear in SMILES notation. pIC50: −log10 of the molar value. Active and inactive are the calls of the source. The rule behind the calls is not given here. Non-standard residues stand in square brackets, D forms with d. Residues, ends and D or L forms follow the SMILES beside them.

For the first experiment, the target named is T1, Heat shock protein HSP 90-beta (Homo sapiens, UniProt P08238). The experiment can be described thus: Potency index, ratio of Kawakami-peptide IC50 to LB51 IC50 C-terminal HSP90beta (527 to 724 residues) (unknown origin) interaction with CYP40 measured after 30 mins by Alphascreen assay.
T1 sequence (P08238 whole entry, the tested form may be a part): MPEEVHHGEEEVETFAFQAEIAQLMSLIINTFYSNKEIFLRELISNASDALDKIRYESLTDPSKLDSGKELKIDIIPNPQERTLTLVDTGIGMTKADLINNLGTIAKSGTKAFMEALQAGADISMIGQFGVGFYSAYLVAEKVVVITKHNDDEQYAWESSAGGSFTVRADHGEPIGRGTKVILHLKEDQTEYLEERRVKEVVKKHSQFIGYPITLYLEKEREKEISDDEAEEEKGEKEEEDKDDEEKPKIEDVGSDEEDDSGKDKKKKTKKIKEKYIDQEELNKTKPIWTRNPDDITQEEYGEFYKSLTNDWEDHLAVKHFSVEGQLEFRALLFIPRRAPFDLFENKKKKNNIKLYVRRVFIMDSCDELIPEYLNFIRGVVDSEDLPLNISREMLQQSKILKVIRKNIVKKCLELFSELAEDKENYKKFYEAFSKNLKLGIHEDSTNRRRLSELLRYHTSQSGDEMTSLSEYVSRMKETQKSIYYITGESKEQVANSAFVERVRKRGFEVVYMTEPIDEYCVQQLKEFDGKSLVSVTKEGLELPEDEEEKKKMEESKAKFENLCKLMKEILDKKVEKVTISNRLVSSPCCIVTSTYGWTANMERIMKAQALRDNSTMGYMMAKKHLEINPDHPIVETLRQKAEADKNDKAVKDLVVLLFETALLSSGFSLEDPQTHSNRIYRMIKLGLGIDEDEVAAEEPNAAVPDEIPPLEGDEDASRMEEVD
Settings: not given
For the compound `NCCCC[C@@H]1NC(=O)[C@H](Cc2ccccc2)NC(=O)[C@H](Cc2ccc(O)cc2)NC(=O)[C@H](CO)NC(=O)[C@H](CC(N)=O)NC1=O` (cyclo(KNSYF)), the Ratio IC50 is above 10.

A further experiment concerns the target T1, Heat shock protein HSP 90-beta. As to the kind of experiment: Inhibition of C-terminal HSP90beta (527 to 724 residues) (unknown origin) interaction with CYP40 measured after 30 mins by Alphascreen assay.
Settings: not given
Consider `CC[C@H](C)[C@H](NC(=O)[C@H](CCCNC(=N)N)NC(=O)[C@H](C)NC(=O)[C@H](Cc1ccc(O)cc1)NC(=O)[C@H](C)NC(=O)[C@@H](N)CCCCN)C(=O)NCC(=O)N[C@@H](CC(N)=O)C(=O)N[C@@H](CO)C(=O)N[C@@H](Cc1ccc(O)cc1)C(=O)N[C@@H](Cc1ccccc1)C(=O)N[C@@H](CCCCN)C(=O)O`, for which the pIC50 was 4.30.

The next experiment shares this target. As to the kind of experiment: Inhibition of C-terminal HSP90beta (527 to 724 residues) (unknown origin) interaction with CYP40 at 1 to 25 uM measured after 30 mins by AlphaLISA assay. The note with it: dose 1-25 µM.
`C[C@H]1NC(=O)[C@H](CCCCN)NC(=O)[C@H](Cc2ccccc2)NC(=O)[C@H](Cc2ccc(O)cc2)NC(=O)[C@H](CO)NC1=O`: the inhibition entry was “inactive”. Regarding `C[C@@H]1NC(=O)[C@H](CC(N)=O)NC(=O)[C@H](CCCCN)NC(=O)[C@H](Cc2ccccc2)NC(=O)[C@H](Cc2ccc(O)cc2)NC1=O` (cyclo(AYFKN)), the inhibition entry is “Active”. The same measure, in the same setting: next, `NCCCC[C@@H]1NC(=O)[C@H](Cc2ccccc2)NC(=O)[C@H](Cc2ccc(O)cc2)NC(=O)[C@H](CO)NC(=O)[C@H](CC(=O)O)NC1=O` (cyclo(DSYFK)): “inactive”; `NCCCC[C@@H]1NC(=O)[C@H](Cc2ccccc2)NC(=O)[C@H](Cc2ccc(O)cc2)NC(=O)[C@H](CO)NC(=O)[C@H](Cc2ccccc2)NC1=O` (cyclo(FKFSY)): “Active”; `CC(C)C[C@@H]1NC(=O)[C@H](CCCCN)NC(=O)[C@H](Cc2ccccc2)NC(=O)[C@H](Cc2ccc(O)cc2)NC(=O)[C@H](CO)NC1=O` (cyclo(FKLSY)): “inactive”. Same read-out and setting: the value for `NCCCC[C@@H]1NC(=O)[C@H](Cc2ccccc2)NC(=O)[C@H](Cc2ccc(O)cc2)NC(=O)[C@@H](CO)NC(=O)[C@H](CC(N)=O)NC1=O` (cyclo(FKN[dS]Y)) was “inactive”; that for `NCCCC[C@@H]1NC(=O)[C@H](Cc2ccccc2)NC(=O)[C@H](Cc2ccc(O)cc2)NC(=O)[C@H](CO)NC(=O)[C@@H](CC(N)=O)NC1=O` (cyclo(FK[dN]SY)) was “inactive”. `NCCCC[C@@H]1NC(=O)[C@@H](Cc2ccccc2)NC(=O)[C@H](Cc2ccc(O)cc2)NC(=O)[C@H](CO)NC(=O)[C@H](CC(N)=O)NC1=O` (cyclo(KNSY[dF])): the inhibition result was “inactive”.
